As a reminder, the EC50 is the concentration giving half of the maximal effect.

One assay relates to Respiratory syncytial virus (RSV) strain A2. The experiment in a line: Hep-2 RSV2 384-well assay (EC50-HEP2-384). The format is cell-based. Particulars: HEp-2 cells, RSV A2, MOI=4, 4 days, Table 3.
`CC(C)C(=O)O[C@H]1[C@@H](OC(=O)C(C)C)[C@](C#N)(c2ccc3c(N)ncnn23)O[C@@H]1COP(=O)(N[C@@H](C)C(=O)OC1CC2(CCCC2)C1)Oc1ccc(C(C)(C)C)cc1` (stereo partly drawn) [Example 100b, (2R,3R,4R,5R)-2-(4-aminopyrrolo[2,1-f][1,2,4]triazin-7-yl)-5-((((4-(tert-butyl)phenoxy)(((S)-1-oxo-1-(spiro[3.4]octan-2-yloxy)propan-2-yl)amino)phosphoryl)oxy)methyl)-2-cyanotetrahydrofuran-3,4-diyl bis(2-methylpropanoate)]: the EC50 was found to be 95.5 nM. In turn, `C[C@H](NP(=O)(OC[C@H]1O[C@@](C#N)(c2ccc3c(N)ncnn23)[C@H](O)[C@@H]1O)Oc1ccc(C(C)(C)C)cc1)C(=O)OCC1CC1` (stereo partly drawn) [Example 101b, Cyclopropyl methyl ((((2R,3S,4R,5R)-5-(4-aminopyrrolo[2,1-f][1,2,4]triazin-7-yl)-5-cyano-3,4-dihydroxytetrahydrofuran-2-yl)methoxy)(4-(tert-butyl)phenoxy)phosphoryl)-L-alaninate] registered an EC50 of 79.2 nM. `CCC(=O)O[C@H]1[C@@H](OC(=O)CC)[C@](C#N)(c2ccc3c(N)ncnn23)O[C@@H]1COP(=O)(N[C@@H](C)C(=O)OCCC(C)(C)CC)Oc1ccccc1` (stereo partly drawn) [Example 105b, (2R,3R,4R,5R)-2-(4-aminopyrrolo[2,1-f][1,2,4]triazin-7-yl)-2-cyano-5-((((((S)-1-((3,3-dimethylpentyl)oxy)-1-oxopropan-2-yl)amino)(phenoxy)phosphoryl)oxy)methyl)tetrahydrofuran-3,4-diyl Dipropionate] registered a half-maximal effective concentration (EC50) of 60.7 nM.

The molecule `CCC(CC)COC(=O)[C@H](C)N[P@](=O)(OC[C@H]1O[C@@](C#N)(c2ccc3c(N)ncnn23)[C@H](OC(C)=O)[C@@H]1OC(C)=O)Oc1cccc2c1CCCC2` [Example 143, (2R,3R,4R,5R)-2-(4-aminopyrrolo[2,1-f][1,2,4]triazin-7-yl)-2-cyano-5-((((S)—(((S)-1-(2-ethylbutoxy)-1-oxopropan-2-yl)amino)((5,6,7,8-tetrahydronaphthalen-1-yl)oxy)phosphoryl)oxy)methyl)tetrahydrofuran-3,4-diyl Diacetate] registered a concentration giving a half-maximal response (EC50) of 737 nM. This EC50 lies about 12-fold higher than the previous one. `CCC(CC)COC(=O)[C@H](C)N[P@@](=O)(OC[C@H]1O[C@@](C#N)(c2ccc3c(N)ncnn23)[C@H](OC(=O)C(C)C)[C@@H]1OC(=O)C(C)C)Oc1cccc2c1CCCC2` [Example 146, (2R,3R,4R,5R)-2-(4-aminopyrrolo[2,1-f][1,2,4]triazin-7-yl)-2-cyano-5-((((R)—(((S)-1-(2-ethylbutoxy)-1-oxopropan-2-yl)amino)((5,6,7,8-tetrahydronaphthalen-1-yl)oxy)phosphoryl)oxy)methyl)tetrahydrofuran-3,4-diyl bis(2-methylpropanoate)]: a half-maximal effect (EC50) was put at 459 nM. The same measure, in the same setting: under `CCC(CC)COC(=O)[C@H](C)N[P@@](=O)(OC[C@H]1O[C@@](C#N)(c2ccc3c(N)ncnn23)[C@H](OC(C)=O)[C@@H]1OC(C)=O)Oc1cccc2c1CCCC2` [Example 147, (2R,3R,4R,5R)-2-(4-aminopyrrolo[2,1-f][1,2,4]triazin-7-yl)-2-cyano-5-((((R)—(((S)-1-(2-ethylbutoxy)-1-oxopropan-2-yl)amino)((5,6,7,8-tetrahydronaphthalen-1-yl)oxy)phosphoryl)oxy)methyl)tetrahydrofuran-3,4-diyl Diacetate] stands 334 nM.

Staying with this assay, now noted: human respiratory syncytial virus, HEp-2, 96 h, HEp-2 cells, RSV A2, MOI=4, 4 days, Table 3.
With `COC(C)(C)COC(=O)[C@H](C)NP(=O)(OC[C@H]1O[C@@](C#N)(c2ccc3c(N)ncnn23)[C@H](O)[C@@H]1O)Oc1cccc2ccccc12` (stereo partly drawn) [Example 128, 2-methoxy-2-methylpropyl ((((2R,3S,4R,5R)-5-(4-aminopyrrolo[2,1-f][1,2,4]triazin-7-yl)-5-cyano-3,4-dihydroxytetrahydrofuran-2-yl)methoxy)(naphthalen-1-yloxy)phosphoryl)-L-alaninate], the response was half-maximal at 525 nM (EC50). The same measure, in the same setting: the same measure for `CCC(CC)COC(=O)[C@H](C)NP(=O)(OC[C@H]1O[C@@](C#N)(c2ccc3c(N)ncnn23)[C@H](O)[C@@H]1O)Oc1ccc2c(c1)CCCC2` (stereo partly drawn) [Example 129, 2-ethylbutyl ((((2R,3S,4R,5R)-5-(4-aminopyrrolo[2,1-f][1,2,4]triazin-7-yl)-5-cyano-3,4-dihydroxytetrahydrofuran-2-yl)methoxy)((5,6,7,8-tetrahydronaphthalen-2-yl)oxy)phosphoryl)-L-alaninate]: 362 nM. `CCC(=O)O[C@H]1[C@@H](OC(=O)CC)[C@](C#N)(c2ccc3c(N)ncnn23)O[C@@H]1COP(=O)(N[C@@H](C)C(=O)OCC(C)(C)OC)Oc1ccc(C(C)(C)C)cc1` (stereo partly drawn) [Example 130, (2R,3R,4R,5R)-2-(4-aminopyrrolo[2,1-f][1,2,4]triazin-7-yl)-5-((((4-(tert-butyl)phenoxy)(((S)-1-(2-methoxy-2-methylpropoxy)-1-oxopropan-2-yl)amino)phosphoryl)oxy)methyl)-2-cyanotetrahydrofuran-3,4-diyl Dipropionate] came in with an EC50 of 52.8 nM. This EC50 is about 6.9-fold lower than that of the molecule before.

Molecule `COC(C)(C)COC(=O)[C@H](C)NP(=O)(OC[C@H]1O[C@@](C#N)(c2ccc3c(N)ncnn23)[C@H](OC(C)=O)[C@@H]1OC(C)=O)Oc1ccc(C(C)(C)C)cc1` (stereo partly drawn) [Example 131, (2R,3R,4R,5R)-2-(4-aminopyrrolo[2,1-f][1,2,4]triazin-7-yl)-5-((((4-(tert-butyl)phenoxy)(((S)-1-(2-methoxy-2-methylpropoxy)-1-oxopropan-2-yl)amino)phosphoryl)oxy)methyl)-2-cyanotetrahydrofuran-3,4-diyl Diacetate] returned an EC50 of 56.2 nM. The same measure, in the same setting: the same measure for `CCC(CC)COC(=O)[C@H](C)NP(=O)(OC[C@H]1O[C@@](C#N)(c2ccc3c(N)ncnn23)[C@H](OC(=O)C(C)C)[C@@H]1OC(=O)C(C)C)Oc1ccc2c(c1)CCCC2` (stereo partly drawn) [Example 132, (2R,3R,4R,5R)-2-(4-aminopyrrolo[2,1-f][1,2,4]triazin-7-yl)-2-cyano-5-((((((S)-1-(2-ethylbutoxy)-1-oxopropan-2-yl)amino)((5,6,7,8-tetrahydronaphthalen-2-yl)oxy)phosphoryl)oxy)methyl) tetrahydrofuran-3,4-diyl bis(2-methylpropanoate)]: 126 nM. With `CCC(=O)O[C@H]1[C@@H](OC(=O)CC)[C@](C#N)(c2ccc3c(N)ncnn23)O[C@@H]1COP(=O)(N[C@@H](C)C(=O)OCC1CCC1)Oc1ccccc1` (stereo partly drawn) [Example 134, (2R,3R,4R,5R)-2-(4-aminopyrrolo[2,1-f][1,2,4]triazin-7-yl)-2-cyano-5-((((((S)-1-(cyclobutylmethoxy)-1-oxopropan-2-yl)amino)(phenoxy)phosphoryl)oxy)methyl)tetrahydrofuran-3,4-diyl Dipropionate], the EC50 amounted to 93.8 nM. As to `CC(C)COC(=O)[C@H](C)NP(=O)(OC[C@H]1O[C@@](C#N)(c2ccc3c(N)ncnn23)[C@H](OC(=O)CC(C)C)[C@@H]1OC(=O)CC(C)C)Oc1ccc(C(C)(C)C)cc1` (stereo partly drawn) [Example 139, (2R,3R,4R,5R)-2-(4-aminopyrrolo[2,1-f][1,2,4]triazin-7-yl)-5-((((4-(tert-butyl)phenoxy)(((S)-1-isobutoxy-1-oxopropan-2-yl)amino)phosphoryl)oxy)methyl)-2-cyanotetrahydrofuran-3,4-diyl bis(3-methylbutanoate)], the EC50 turned out to be 194 nM.

In turn, `CCC(CC)COC(=O)[C@H](C)NP(=O)(OC[C@H]1O[C@@](C#N)(c2ccc3c(N)ncnn23)[C@H](O)[C@@H]1O)Oc1ccc(OC2CCCCC2)cc1` (stereo partly drawn) [Example 140, 2-ethylbutyl ((((2R,3S,4R,5R)-5-(4-aminopyrrolo[2,1-f][1,2,4]triazin-7-yl)-5-cyano-3,4-dihydroxytetrahydrofuran-2-yl)methoxy)(4-(cyclohexyloxy)phenoxy)phosphoryl)-L-alaninate] registered a concentration for a half-maximal effect (EC50) of 302 nM. Molecule `COCCOC(=O)[C@H](C)NP(=O)(OC[C@H]1O[C@@](C#N)(c2ccc3c(N)ncnn23)[C@H](O)[C@@H]1O)Oc1ccc(C(C)(C)C)cc1` (stereo partly drawn) [Example 141, 2-methoxyethyl ((((2R,3S,4R,5R)-5-(4-aminopyrrolo[2,1-f][1,2,4]triazin-7-yl)-5-cyano-3,4-dihydroxytetrahydrofuran-2-yl)methoxy)(4-(tert-butyl)phenoxy)phosphoryl)-L-alaninate] returned an EC50 of 305 nM. Molecule `C[C@H](NP(=O)(OC[C@H]1O[C@@](C#N)(c2ccc3c(N)ncnn23)[C@H](O)[C@@H]1O)Oc1ccc(C(C)(C)C)cc1)C(=O)OC1CCCCC1` (stereo partly drawn) [Example 142, cyclohexyl ((((2R,3S,4R,5R)-5-(4-aminopyrrolo[2,1-f][1,2,4]triazin-7-yl)-5-cyano-3,4-dihydroxytetrahydrofuran-2-yl)methoxy)(4-(tert-butyl)phenoxy)phosphoryl)-L-alaninate] showed a 50% effective concentration (EC50) of 73.5 nM.

`CCC(CC)COC(=O)[C@H](C)N[P@](=O)(OC[C@H]1O[C@@](C#N)(c2ccc3c(N)ncnn23)[C@H](OC(=O)C(C)C)[C@@H]1OC(=O)C(C)C)Oc1cccc2c1CCCC2` [Example 144, (2R,3R,4R,5R)-2-(4-aminopyrrolo[2,1-f][1,2,4]triazin-7-yl)-2-cyano-5-((((S)—(((S)-1-(2-ethylbutoxy)-1-oxopropan-2-yl)amino)((5,6,7,8-tetrahydronaphthalen-1-yl)oxy)phosphoryl)oxy)methyl)tetrahydrofuran-3,4-diyl bis(2-methylpropanoate)] gave an EC50 of 780 nM. As to `CC(=O)O[C@H]1[C@@H](OC(C)=O)[C@](C#N)(c2ccc3c(N)ncnn23)O[C@@H]1COP(=O)(N[C@@H](C)C(=O)OC1CCCCC1)Oc1ccc(C(C)(C)C)cc1` (stereo partly drawn) [Example 148, (2R,3R,4R,5R)-2-(4-aminopyrrolo[2,1-f][1,2,4]triazin-7-yl)-5-((((4-(tert-butyl)phenoxy)(((S)-1-(cyclohexyloxy)-1-oxopropan-2-yl)amino)phosphoryl)oxy)methyl)-2-cyanotetrahydrofuran-3,4-diyl Diacetate], the response was half-maximal at 59.3 nM (EC50). In the case of `CC(C)C(=O)O[C@H]1[C@@H](OC(=O)C(C)C)[C@](C#N)(c2ccc3c(N)ncnn23)O[C@@H]1COP(=O)(N[C@@H](C)C(=O)OC1CCCCC1)Oc1ccc(C(C)(C)C)cc1` (stereo partly drawn) [Example 149, (2R,3R,4R,5R)-2-(4-aminopyrrolo[2,1-f][1,2,4]triazin-7-yl)-5-((((4-(tert-butyl)phenoxy)(((S)-1-(cyclohexyloxy)-1-oxopropan-2-yl)amino)phosphoryl)oxy)methyl)-2-cyanotetrahydrofuran-3,4-diyl bis(2-methylpropanoate)], the half-maximal effective concentration (EC50) is 99.4 nM. Against the preceding molecule, the EC50 is about 1.7-fold higher.

Values taken from US12404289B2 (Gilead Sciences, Inc., priority 2020, dated 2025).
